From article PMC8200818, “SPECT/CT Imaging, Biodistribution and Radiation Dosimetry of a ^177Lu-DOTA-Integrin αvβ6 Cystine Knot Peptide in a Pancreatic Cancer Xenograft Model” (Frontiers in Oncology, 2021)

Key:
[1] = molecular target: T1, integrin αvβ6 (Capan-2 cells) (Homo sapiens, UniProt P06756+P18564); experiment: Competition binding assay, Capan-2
T1 construct: endogenous in cells; host or cells: Capan-2 (whole adherent cells)
Procedure: (§1) The reaction volume was made up to 30 µl with water. The reaction was carried out for 10 minutes at 80°C.
(§2) For competitive radioligand binding assay, approximately 50,000 cells (BxPC-3 or Capan-2) per well were seeded in a 96 well plate incubated overnight at 37°C. […] After 2 hours of incubation, cells were washed for 2-3 times with ice-cold washing buffer (50 mM Tris-HCl, pH 7.4, 125 mM NaCl, 0.05% BSA) and lysed with 1 N NaOH (80 µl/well). The lysed cells were transferred to vials and measured in a gamma counter (Wallac 1470 Wizard, Perkin Elmer, Waltham, MA, USA). Obtained cpm values were plotted with GraphPad Prism and the data fitted using nonlinear regression (one site - fit Ki, one site - fit logIC50).
(§3) All statistical analyses were performed using GraphPad Prism 5.04. IC50 values were determined by nonlinear sigmoidal curve fitting with variable slope setting. All presented data are based on independent experiments. Numerical data for this study have been deposited in an open data repository for public access: http://doi.org/10.5281/zenodo.4362503.

[2] = cited from earlier work
[3] = molecular target: T2, integrin αvβ6 (BxPC-3 cells) (Homo sapiens, UniProt P06756+P18564); experiment: Competition binding assay, BxPC-3; conditions: BxPC-3
T2 construct: endogenous in cells; host or cells: BxPC-3 (whole adherent cells)
T2 sequence (P06756 31-889 limits assumed): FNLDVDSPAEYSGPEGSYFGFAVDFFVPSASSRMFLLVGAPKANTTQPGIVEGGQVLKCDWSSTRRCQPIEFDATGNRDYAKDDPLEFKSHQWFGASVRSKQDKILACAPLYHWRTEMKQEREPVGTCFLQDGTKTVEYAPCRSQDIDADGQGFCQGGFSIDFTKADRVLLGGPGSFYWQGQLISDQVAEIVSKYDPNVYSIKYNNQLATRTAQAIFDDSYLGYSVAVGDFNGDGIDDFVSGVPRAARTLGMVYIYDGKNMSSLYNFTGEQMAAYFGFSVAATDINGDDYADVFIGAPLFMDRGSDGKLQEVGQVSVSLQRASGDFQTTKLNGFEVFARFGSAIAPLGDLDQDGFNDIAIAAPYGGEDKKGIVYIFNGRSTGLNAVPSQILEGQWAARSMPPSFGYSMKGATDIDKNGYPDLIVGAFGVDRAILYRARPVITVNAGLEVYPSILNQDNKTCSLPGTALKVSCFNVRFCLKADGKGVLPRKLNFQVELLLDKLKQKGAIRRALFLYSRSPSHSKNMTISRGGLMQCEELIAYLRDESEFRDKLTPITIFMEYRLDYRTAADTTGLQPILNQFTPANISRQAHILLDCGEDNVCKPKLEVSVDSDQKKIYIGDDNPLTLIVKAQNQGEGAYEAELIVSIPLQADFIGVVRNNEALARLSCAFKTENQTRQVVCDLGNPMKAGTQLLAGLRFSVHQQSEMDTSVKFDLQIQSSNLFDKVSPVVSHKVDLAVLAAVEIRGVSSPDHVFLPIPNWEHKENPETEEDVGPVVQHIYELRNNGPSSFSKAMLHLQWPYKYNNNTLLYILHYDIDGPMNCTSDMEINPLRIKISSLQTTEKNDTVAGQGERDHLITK
T2 sequence (P06756 891-1048 partner limits assumed): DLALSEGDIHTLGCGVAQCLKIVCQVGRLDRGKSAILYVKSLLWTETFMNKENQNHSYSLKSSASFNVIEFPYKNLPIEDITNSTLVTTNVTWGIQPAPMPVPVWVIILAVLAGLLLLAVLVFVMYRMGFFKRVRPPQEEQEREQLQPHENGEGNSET
T2 sequence (P18564 22-788): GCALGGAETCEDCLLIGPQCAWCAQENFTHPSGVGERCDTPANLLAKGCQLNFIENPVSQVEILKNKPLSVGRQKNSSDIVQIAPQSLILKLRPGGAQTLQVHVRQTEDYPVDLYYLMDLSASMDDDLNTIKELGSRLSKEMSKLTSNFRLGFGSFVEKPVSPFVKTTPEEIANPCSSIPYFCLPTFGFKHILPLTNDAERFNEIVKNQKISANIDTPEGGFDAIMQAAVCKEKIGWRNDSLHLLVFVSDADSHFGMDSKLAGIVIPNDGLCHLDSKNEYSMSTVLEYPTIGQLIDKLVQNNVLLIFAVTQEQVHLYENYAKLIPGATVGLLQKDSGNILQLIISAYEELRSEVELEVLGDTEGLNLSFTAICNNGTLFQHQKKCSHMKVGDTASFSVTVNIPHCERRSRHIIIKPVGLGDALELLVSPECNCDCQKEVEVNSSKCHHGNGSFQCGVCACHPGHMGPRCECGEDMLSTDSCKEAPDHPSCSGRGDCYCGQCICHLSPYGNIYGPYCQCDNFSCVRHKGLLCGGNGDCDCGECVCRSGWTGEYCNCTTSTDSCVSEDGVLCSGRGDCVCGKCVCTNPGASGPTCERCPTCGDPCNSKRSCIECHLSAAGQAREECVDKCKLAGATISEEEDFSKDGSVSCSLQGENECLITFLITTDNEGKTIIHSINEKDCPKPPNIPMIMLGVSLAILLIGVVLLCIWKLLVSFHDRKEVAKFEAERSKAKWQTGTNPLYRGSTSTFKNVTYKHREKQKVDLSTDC
Procedure: as §1, §2, §3

integrin αvβ6 = conditions: cited from earlier work
From the text: Cystine knot peptides (knottins) represent small peptides of approximately 4 kDa with three threaded disulfide bonds that form a rigid topological knot constraining the peptide’s conformational flexibility. Such a structural motif is known as a cystine knot ([21], [22]). One of the advantages of knottins is the high variability of backbone residues that may be used to modulate tumor and kidney uptake ([23]). Knottins are well suited for in vivo tumor-targeting applications as their disulfide-bonded core confers outstanding thermal stability and resistance against proteolytic degradation; moreo ...

Capan-2 xenografts = conditions: day 1 versus day 8 after injection; single dose; listed as DOTA-integrin αvβ6 knottin
[4] = displacement of ^125I-DOTA-integrin αvβ6 knottin (100,000 cpm), 2 h, pH 7.4, mean ± S.E.M. (3 ≤ n ≤ 4), read-out: Inhibitory constant (Ki)

T1 sequence (P06756 31-889 limits assumed): as the sequence (P06756 31-889 limits assumed) above
T1 sequence (P06756 891-1048 partner limits assumed): as the sequence (P06756 891-1048 partner limits assumed) above
T1 sequence (P18564 22-788): as the sequence (P18564 22-788) above

SMILES	Effect of DOTA / ^natLu chelation on affinity [1]	Stability and affinity to the receptor in vivo [2]	Tumor uptake (previous) ([2]; in vivo)	Effect of DOTA / ^natLu chelation on affinity [3]	Binding affinity for integrin αvβ6 (integrin αvβ6)	Ki [1, 4] [nM]	Ki [3, 4] [nM]	Tissue structure of xenografts (H&E) (Capan-2 xenografts)
CC[C@H](C)[C@@H]1NC(=O)[C@@H](NC(=O)CN)CSSC[C@@H]2NC(=O)[C@H](C)NC(=O)CNC(=O)[C@@H]3CCCN3C(=O)[C@@H]3CSSC[C@@H](C(=O)NCC(=O)O)NC(=O)[C@H](Cc4ccc(O)cc4)NC(=O)CNC(=O)[C@H](CC(N)=O)NC(=O)CNC(=O)[C@H](CCCNC(=N)N)NC(=O)[C@H](CSSC[C@H](NC(=O)[C@H](CCCNC(=N)N)NC(=O)[C@H](Cc4ccccc4)NC(=O)[C@H](CC(C)C)NC(=O)[C@H](CC(C)C)NC(=O)[C@H]([C@@H](C)O)NC(=O)CNC(=O)[C@H](CC(C)C)NC(=O)[C@H](CC(=O)O)NC(=O)[C@H]([C@@H](C)O)NC(=O)[C@H](CCCNC(=N)N)NC(=O)CNC(=O)[C@H](CC(N)=O)NC(=O)[C@H](CC(C)C)NC1=O)C(=O)N[C@@H](CCCNC(=N)N)C(=O)N[C@@H](CCCNC(=N)N)C(=O)N[C@@H](CC(=O)O)C(=O)N[C@@H](CO)C(=O)N[C@@H](CC(=O)O)C(=O)N3)NC(=O)[C@H]([C@@H](C)CC)NC2=O [knottin]	did not change upon either the addition of a DOTA chelator moiety or incorporation of natural non-radioactive lutetium	not compromised in vivo	favorable tumor uptake	did not change upon either the addition of a DOTA chelator moiety or incorporation of natural non-radioactive lutetium	low single-digit nanomolar binding affinity			
CC[C@H](C)[C@@H]1NC(=O)[C@@H](NC(=O)CNC(=O)CN2CCN(CC(=O)O)CCN(CC(=O)O)CCN(CC(=O)O)CC2)CSSC[C@@H]2NC(=O)[C@H](C)NC(=O)CNC(=O)[C@@H]3CCCN3C(=O)[C@@H]3CSSC[C@@H](C(=O)NCC(=O)O)NC(=O)[C@H](Cc4ccc(O)cc4)NC(=O)CNC(=O)[C@H](CC(N)=O)NC(=O)CNC(=O)[C@H](CCCNC(=N)N)NC(=O)[C@H](CSSC[C@H](NC(=O)[C@H](CCCNC(=N)N)NC(=O)[C@H](Cc4ccccc4)NC(=O)[C@H](CC(C)C)NC(=O)[C@H](CC(C)C)NC(=O)[C@H]([C@@H](C)O)NC(=O)CNC(=O)[C@H](CC(C)C)NC(=O)[C@H](CC(=O)O)NC(=O)[C@H]([C@@H](C)O)NC(=O)[C@H](CCCNC(=N)N)NC(=O)CNC(=O)[C@H](CC(N)=O)NC(=O)[C@H](CC(C)C)NC1=O)C(=O)N[C@@H](CCCNC(=N)N)C(=O)N[C@@H](CCCNC(=N)N)C(=O)N[C@@H](CC(=O)O)C(=O)N[C@@H](CO)C(=O)N[C@@H](CC(=O)O)C(=O)N3)NC(=O)[C@H]([C@@H](C)CC)NC2=O [^natLu DOTA knottin, metal not drawn]	did not compromise the high affinity of the tracer			did not compromise the high affinity of the tracer				
CC[C@H](C)[C@@H]1NC(=O)[C@@H](NC(=O)CNC(=O)CN2CCN(CC(=O)O)CCN(CC(=O)O)CCN(CC(=O)O)CC2)CSSC[C@@H]2NC(=O)[C@H](C)NC(=O)CNC(=O)[C@@H]3CCCN3C(=O)[C@@H]3CSSC[C@@H](C(=O)NCC(=O)O)NC(=O)[C@H](Cc4ccc(O)cc4)NC(=O)CNC(=O)[C@H](CC(N)=O)NC(=O)CNC(=O)[C@H](CCCNC(=N)N)NC(=O)[C@H](CSSC[C@H](NC(=O)[C@H](CCCNC(=N)N)NC(=O)[C@H](Cc4ccccc4)NC(=O)[C@H](CC(C)C)NC(=O)[C@H](CC(C)C)NC(=O)[C@H]([C@@H](C)O)NC(=O)CNC(=O)[C@H](CC(C)C)NC(=O)[C@H](CC(=O)O)NC(=O)[C@H]([C@@H](C)O)NC(=O)[C@H](CCCNC(=N)N)NC(=O)CNC(=O)[C@H](CC(N)=O)NC(=O)[C@H](CC(C)C)NC1=O)C(=O)N[C@@H](CCCNC(=N)N)C(=O)N[C@@H](CCCNC(=N)N)C(=O)N[C@@H](CC(=O)O)C(=O)N[C@@H](CO)C(=O)N[C@@H](CC(=O)O)C(=O)N3)NC(=O)[C@H]([C@@H](C)CC)NC2=O [DOTA knottin]						9.46 ± 5.21	1.69 ± 1.3	no significant impact was observed
